Experimental data as given in patent US8841277B2, “Methods for treating non-small cell lung cancer using 5-azacytidine” (Celgene Corporation, priority 2009, dated 2014).
“Also recorded” adds a separate entry of the source.

Key:
A549 cells [1] = assay: Cell viability (CyQuant assay), A549; assay type: cell-based; conditions: 72 hours; for HillSlope / LogIC50 / IC50: A549 viability, best-fit value; for LogIC50: log(inhibitor) vs. normalized response -- Variable slope; for EC50 / IC50: Homo sapiens; for EC50: A549, read-out: EC50 of effect on viability
Procedure: (§1) Certain NSCLC cell lines (H460, H1299, A549, and H1975) were purchased from American Type Culture Collection (ATCC; Manassas, Va.). The H23NSCLC cell line was obtained from the National Cancer Institute (NCI; Bethesda, Md.). Cell lines were cultured in their respective media, as recommended by ATCC and NCI. AZA was manufactured at Aptuit (Greenwich, Conn.) for Celgene (Summit, N.J.), while DAC was purchased from Sigma-Aldrich (St. Louis, Mo.). In all experiments, cells were seeded 24 hours before drug treatment and incubated at 37° C./5% CO2, For cell viability assays, H460, H1299, A549, H23, and H1975 cells were seeded in triplicate at 1×10^3, 1×10^3, 1×10^3, 4×10^3, and 4×10^3 cells per well, respectively, in 96-well plates, using 200 μL of medium per well. Fresh drug was added every 24 hours by replacing medium with drug-containing medium. For all other assays, cells were seeded at 0.6-1.2×10^5 cells per well, in 6-well plates, using 4 mL of medium per well, with fresh drug added directly to the medium every 24 hours.
(§2) Cell viability was assessed using the CyQuant assay (Life Technologies Corporation; Carlsbad, Calif.). Fluorescence was measured with a spectrophotometer (Molecular Devices; Sunnyvale, Calif.), and EC50 values were calculated in Prism® version 5.01 (GraphPad Software, Inc.; La Jolla, Calif.), using results from three independent experiments.
(§3) The six data sets represent calculations of EC50 values from raw data using Prism®. The standard deviation among the three independent experiments was determined at each drug concentration. For some of the cell lines, Prism® was not able to calculate the EC50 for DAC. For those curves that an EC50 was available, the SE (Std. Error) was acceptable (SE of the logEC50 should be less than 0.5), meaning that the standard errors were not too large. The 95% Confidence Intervals for the EC50 were considered as a measure of error.

H1975 cells = assay: Cell viability (CyQuant assay), H1975; assay type: cell-based; conditions: 72 hours; for HillSlope / LogIC50 / IC50: H1975 viability, best-fit value; for EC50 / IC50: Homo sapiens, NCI-H1975; for EC50: H1975, read-out: EC50 of effect on viability
Procedure: as §1, §2, §3

H23 cells = assay: Cell viability (CyQuant assay), H23; assay type: cell-based; conditions: 72 hours; for HillSlope / LogIC50 / IC50: H23 viability, best-fit value; for EC50 / IC50: Homo sapiens, NCI-H23; for EC50: H23, read-out: EC50 of effect on viability
Procedure: as §1, §2, §3

H460 cells = assay: Apoptosis (AnnexinV-FITC/7-AAD), H460; assay type: cell-based; conditions: 0.3-10 μM
Excerpt: For cell cycle distribution, cells were stained with the NIM-DAPI reagent (Beckman Coulter, Inc.; Fullerton, Calif.). For measurement of early- and late-apoptotic cell populations, cells were stained with AnnexinV-FITC and 7-AAD reagents (Beckman Coulter, Inc.). Samples were processed according to manufacturer's instructions and analyzed on a Cell Lab Quanta MPL flow cytometer (Beckman Coulter, Inc.). […] Data were also collected for untreated cells as control.

A549 cells [2] = assay: Western analysis of DNA damage and apoptosis markers, A549; assay type: cell-based; conditions: for Induction of Histone H2AX phosphorylation (marker of DNA damage) / Induction of PARP cleavage (marker of apoptosis): 0.3-10 μM, 24 h to 72 h (3 days)
Procedure: These studies also examined apoptosis using an assay for PARP cleavage. Cells studied included H460, A549, and H1299 cells.
For western analyses of protein levels, cells were washed with PBS and lysed with RIPA buffer (Cell Signaling Technology, Inc.; Danvers, Mass.) containing 350 mM NaCl and 0.1% SDS. Cell lysates were sonicated with two 5-second bursts under low amplitude (20%) using the Digital Sonic Dismembrator (Thermo Fisher Scientific, Inc.; Waltham, Mass.). Proteins were separated on 4-12% Bis-Tris NuPAGE gels (Life Technologies Corporation) and transferred to nitrocellulose membranes. DNMT1, phos-Histone-H2AX(Ser139), total Histone-H2AX, cleaved-PARP, p21, p53, and alpha-tubulin were detected using the Li-Cor Odyssey imaging system (Li-Cor Biotechnology; Lincoln, Nebr.), following incubation with the appropriate primary and secondary antibodies. The phos-Histone-H2AX(Ser139), cleaved-PARP, and p21 antibodies were from Cell Signaling Technology, Inc. The p53 and total Histone-H2AX (C-20) antibodies were from Santa Cruz Biotechnology, Inc. (Santa Cruz, Calif.). The alpha-tubulin and DNMT1 antibodies were purchased from EMD Chemicals, Inc. (Gibbstown, N.J.) and Abcam, Inc. (Cambridge, Mass.), respectively. The goat anti-Rabbit IRDye 680, goat anti-Mouse IRDye 800CW, and donkey anti-Goat IRDye 800CW secondary antibodies were from Li-Cor Biotechnology.

A549 cells [3] = assay: Gene expression microarray analysis, A549; assay type: cell-based, human; conditions: 48 hours; for Downregulated Genes: AZA-Specific / DAC-Specific Genes (number) / Upregulated Genes: AZA-Specific / DAC-Specific Genes (number) / Downregulated Genes: Genes in Common (number) / Upregulated Genes: Genes in Common (number) / Regulation of genes in the Response to DNA Damage Stimulus/DNA Repair biogroup: A549; for Downregulated Genes: Genes in Common (number) / Upregulated Genes: Genes in Common (number): regulated by both AZA and DAC;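 on Downregulated Genes: AZA-Specific / DAC-Specific Genes (number): drug dose range 0.3 to 3 µM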;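 on Downregulated Genes: Genes in Common (number): drug dose range 0.3 to 3 µM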;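 on Upregulated Genes: AZA-Specific / DAC-Specific Genes (number): drug dose range 0.3 to 3 µM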;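 on Upregulated Genes: Genes in Common (number): drug dose range 0.3 to 3 µM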
Procedure: Cells were lysed using the TRIzol reagent (Life Technologies Corporation) and total RNA was isolated using miRNeasy (Qiagen). Double-stranded cDNA and biotin-labeled cRNA were synthesized using 100 ng of total RNA using Ambion's MessageAmp Premier RNA Amplification Kit (ABI; Foster City, Calif.). Biotin-labeled cRNA, at 10 μg, was fragmented and hybridized to each human U133A 2.0 genechip (Affymetrix; Santa Clara, Calif.). The GC-RMA algorithm was used for normalization and all analyses were done using GeneSpring 7.3 (Agilent; Santa Clara, Calif.). Averaged signals from biological duplicate samples were used to determine fold change (Treated vs. Untreated), with an absolute fold change of ≧1.7 defining regulated genes. NextBio was used to identify regulated Gene Ontology biogroups from lists of regulated genes. The top 15 biogroups are those with the lowest p-values calculated within NextBio.
The number of genes modulated in common between the two drugs was low.
Functional groupings of the modulated genes were determined using Gene Ontology classifications in Nextbio (http://www.nextbio.com/).

MDS, AML, CML, ALL, NHL = conditions: e.g. treatment of MDS, Aparicio et al. 2002; cited from earlier work

EC50 (A549 cells [1]) [µM]	IC50 (A549 cells [1]) [µM]	EC50 (H1975 cells) [µM]	IC50 (H1975 cells) [µM]	Compound	HillSlope (A549 cells [1])	LogIC50 (A549 cells [1])	HillSlope (H1975 cells)	LogIC50 (H1975 cells)	HillSlope (H23 cells)	LogIC50 (H23 cells)	EC50 (H23 cells) [µM]	IC50 (H23 cells) [µM]	Early- and late-apoptotic cell populations (AnnexinV/7-AAD) (H460 cells; 30-hour treatment)	Early- and late-apoptotic cell populations (AnnexinV/7-AAD) (H460 cells; 48-hour treatment)	Induction of Histone H2AX phosphorylation (marker of DNA damage) (A549 cells [2])	Induction of PARP cleavage (marker of apoptosis) (A549 cells [2])	Downregulated Genes: AZA-Specific / DAC-Specific Genes (number) (A549 cells [3]; 0.3 μM)	Upregulated Genes: AZA-Specific / DAC-Specific Genes (number) (A549 cells [3]; 0.3 μM, fold change ≧1.7)	Downregulated Genes: Genes in Common (number) (A549 cells [3]; 0.3 μM)	Upregulated Genes: Genes in Common (number) (A549 cells [3]; 0.3 μM)	further results
6.4	6.36	7.8	7.76	Nc1ncn([C@@H]2O[C@H](CO)[C@@H](O)[C@H]2O)c(=O)n1 [AZA, 4-amino-1-β-D-ribofuranosyl-1,3,5-triazin-2(1H)-one]	−1.108	0.8033	−0.6352	0.8897	−1.054	1.005	10.1	10.1	dramatic increase in early-apoptotic (AnnexinV^+7-AAD^−) and late-apoptotic (AnnexinV^+7-AAD^−) cells	dramatic increase in early-apoptotic (AnnexinV^+7-AAD^−) cells	induced	induced	14	16	11	17	Downregulated Genes: AZA-Specific / DAC-Specific Genes (number) (A549 cells [3]; 1.0 μM): 273; Upregulated Genes: AZA-Specific / DAC-Specific Genes (number) (A549 cells [3]; 1.0 μM): 279; Downregulated Genes: Genes in Common (number) (A549 cells [3]; 1.0 μM): 30; Upregulated Genes: Genes in Common (number) (A549 cells [3]; 1.0 μM): 45; Downregulated Genes: AZA-Specific / DAC-Specific Genes (number) (A549 cells [3]; 3.0 μM): 560; Upregulated Genes: AZA-Specific / DAC-Specific Genes (number) (A549 cells [3]; 3.0 μM): 636; Downregulated Genes: Genes in Common (number) (A549 cells [3]; 3.0 μM): 55; Upregulated Genes: Genes in Common (number) (A549 cells [3]; 3.0 μM): 66; Regulation of genes in the Response to DNA Damage Stimulus/DNA Repair biogroup (A549 cells [3]): general upregulation; Anti-tumor activity in clinical trials (MDS, AML, CML, ALL, NHL): significant anti-tumor activity
> 25	35.9	> 25	283	Nc1ncn([C@H]2C[C@H](O)[C@@H](CO)O2)c(=O)n1 [DAC, 5-aza-2′-deoxycytidine]	−0.4617	1.556	−0.2958	2.452	−0.3790	1.268	18.5	18.5	very slight increase in these cell populations; also recorded: very slight increase in this cell population	some increase in this cell population	did not have any effect and not	did not have any effect and not	55	139	11	17	p21 expression (A549 cells [2]; 24 h and 48 h): induce; p53 expression (A549 cells [2]; 24 h and 48 h): induce; Induction of Histone H2AX phosphorylation (A549 cells [2]; 6 days of treatment): lack of induction; Induction of PARP cleavage (A549 cells [2]; 6 days of treatment): lack of induction; Fold more genes modulated than AZA (A549 cells [3]; A549 (stated for A549 and H1299 together), 0.3 μM): 4- to 20 fold; Downregulated Genes: AZA-Specific / DAC-Specific Genes (number) (A549 cells [3]; 1.0 μM): 111; Upregulated Genes: AZA-Specific / DAC-Specific Genes (number) (A549 cells [3]; 1.0 μM): 261; Downregulated Genes: Genes in Common (number) (A549 cells [3]; 1.0 μM): 30; Upregulated Genes: Genes in Common (number) (A549 cells [3]; 1.0 μM): 45; Downregulated Genes: AZA-Specific / DAC-Specific Genes (number) (A549 cells [3]; 3.0 μM): 239; Upregulated Genes: AZA-Specific / DAC-Specific Genes (number) (A549 cells [3]; 3.0 μM): 413; Downregulated Genes: Genes in Common (number) (A549 cells [3]; 3.0 μM): 55; Upregulated Genes: Genes in Common (number) (A549 cells [3]; 3.0 μM): 66; Regulation of genes in the Response to DNA Damage Stimulus/DNA Repair biogroup (A549 cells [3]): general downregulation; Anti-tumor activity in clinical trials (MDS, AML, CML, ALL, NHL): significant anti-tumor activity
